US10548317B2, “Pesticidally active pyrazole derivatives” (SYNGENTA PARTICIPATIONS AG, priority 2015, dated 2020)

Assays:
Format in all cases: in vivo
[1] = test system: Spodoptera littoralis; assay: Spodoptera littoralis (Egyptian cotton leaf worm) leaf disc spray test; conditions: foliar, 72 h, application rate of 200 ppm, cotton leaf discs, L1 larvae, 3 days after infestation, read-out: control (at least one of mortality, anti-feedant effect, growth inhibition)
Description: Spodoptera littoralis (Egyptian Cotton Leaf Worm)
Cotton leaf discs were placed on agar in 24-well microtiter plates and sprayed with aqueous test solutions prepared from 10'000 ppm DMSO stock solutions. After drying the leaf discs were infested with five L1 larvae. The samples were assessed for mortality, anti-feedant effect, and growth inhibition in comparison to untreated samples 3 days after infestation. Control of Spodoptera littoralis by a test sample is when at least one of mortality, anti-feedant effect, and growth inhibition is higher than the untreated sample.

[2] = test system: Plutella xylostella; assay: Plutella xylostella (diamond back moth) artificial diet test; conditions: 120 h, application rate of 200 ppm, L2 larvae, 5 days after infestation, read-out: effect in at least one of the two categories (mortality or growth inhibition)
Description: Plutella xylostella (Diamond Back Moth):
24-well microtiter plates with artificial diet were treated with aqueous test solutions prepared from 10'000 ppm DMSO stock solutions by pipetting. After drying, the plates were infested with L2 larvae (10 to 15 per well). The samples were assessed for mortality and growth inhibition in comparison to untreated samples 5 days after infestation. The following compounds gave an effect of at least 80% in at least one of the two categories (mortality or growth inhibition) at an application rate of 200 ppm: 1, 2, 3, 4, 5, 6, 7, 8, 9, 10, 11, 12, 13, 14, 15, 16, 17, 18, 19, 20, 21, 22, 23, 24, 25, 26, 27, 28, 29, 30, 31, 32, 33, 35, 36, 37, 38, 39, 40, 41, 42, 43, 44, 45, 46, 47, 48, 50, 51, 52, 53, 54 and 55.

[3] = test system: Diabrotica balteata; assay: Diabrotica balteata (corn root worm) maize sprout test; conditions: 96 h, application rate of 200 ppm, maize sprouts, L2 larvae, 4 days after infestation, read-out: effect in at least one of the two categories (mortality or growth inhibition)
Description: Diabrotica balteata, (Corn Root Worm)
Maize sprouts, placed on an agar layer in 24-well microtiter plates were treated with aqueous test solutions prepared from 10'000 ppm DMSO stock solutions by spraying. After drying, the plates were infested with L2 larvae (6 to 10 per well). The samples were assessed for mortality and growth inhibition in comparison to untreated samples 4 days after infestation. The following compounds gave an effect of at least 80% in at least one of the two categories (mortality or growth inhibition) at an application rate of 200 ppm: 1, 3, 4, 5, 6, 7, 8, 9, 10, 11, 12, 14, 15, 16, 17, 18, 19, 20, 21, 22, 23, 24, 25, 26, 27, 28, 29, 30, 31, 32, 33, 35, 36, 37, 38, 39, 40, 41, 42, 43, 44, 45, 48, 50, 51, 52, 53, 54 and 55.

[4] = test system: Thrips tabaci; assay: Thrips tabaci (onion thrips) sunflower leaf disc test; conditions: foliar, 144 h, application rate of 200 ppm, sunflower leaf discs, mixed ages, 6 days after infestation
Description: Thrips tabaci (Onion thrips):
(§1) Sunflower leaf discs were placed on agar in 24-well microtiter plates and sprayed with aqueous test solutions prepared from 10'000 ppm DMSO stock solutions. After drying the leaf discs were infested with a thrips population of mixed ages. The samples were assessed for mortality 6 days after infestation.

[5] = test system: Euschistus heros; assay: Euschistus heros (neotropical brown stink bug) soybean leaf test; conditions: 120 h, application rate of 200 ppm, soybean leaves, N2 nymphs, 5 days after infestation, read-out: effect in at least one of the two categories (mortality or growth inhibition)
Description: Euschistus heros (Neotropical Brown Stink Bug)
Soybean leaves on agar in 24-well microtiter plates were sprayed with aqueous test solutions prepared from 10'000 ppm DMSO stock solutions. After drying the leaves were infested with N2 nymphs. The samples were assessed for mortality and growth inhibition in comparison to untreated samples 5 days after infestation. The following compounds gave an effect of at least 80% in at least one of the two categories (mortality or growth inhibition) at an application rate of 200 ppm: 3, 4, 5, 6, 9, 10, 12, 14, 15, 16, 17, 18, 20, 24, 27, 28, 29, 31, 32, 33, 36, 37, 38, 42, 43, 45, 50, 52, 53, 54 and 55.

[6] = test system: Tetranychus urticae; assay: Tetranychus urticae (two-spotted spider mite) bean leaf disc test; conditions: foliar, 192 h, application rate of 200 ppm, bean leaf discs, mixed population (mobile stages), 8 days after infestation
Description: Tetranychus urticae (Two-Spotted Spider Mite):
as §1, with “Bean” for “Sunflower”, “discs” for “discs were placed”, “were” for “and”, “mite” for “thrips”, “on mixed population (mobile stages) 8” for “6”

Cn1nc(C(F)(F)C(F)(F)F)c(C(F)(F)F)c1-n1cc(-c2cc(C(=O)NCC(F)(F)F)c(Cl)s2)cn1 [Compound 14]
≥ 80%: control (mortality, anti-feedant effect or growth inhibition) at 200 ppm [1] | percent effect (mortality or growth inhibition) at 200 ppm [2] | percent effect (mortality or growth inhibition) at 200 ppm [3] | mortality at 200 ppm [4] | percent effect (mortality or growth inhibition) at 200 ppm [5]

Cc1sc(-c2cnn(-c3c(C(F)(F)F)c(C(F)(F)C(F)(F)F)nn3C)c2)cc1C(=O)NC1CC1 [Compound 43]
≥ 80%: control (mortality, anti-feedant effect or growth inhibition) at 200 ppm [1] | percent effect (mortality or growth inhibition) at 200 ppm [2] | percent effect (mortality or growth inhibition) at 200 ppm [3] | mortality at 200 ppm [4] | mortality at 200 ppm [6] | percent effect (mortality or growth inhibition) at 200 ppm [5]

Cn1nc(C(F)(F)C(F)(F)F)c(C(F)(F)F)c1-n1cc(-c2cc(C(=O)NC3(c4ccccn4)CC3)c(Cl)s2)cn1 [Compound 15]
≥ 80%: control (mortality, anti-feedant effect or growth inhibition) at 200 ppm [1] | percent effect (mortality or growth inhibition) at 200 ppm [2] | percent effect (mortality or growth inhibition) at 200 ppm [3] | mortality at 200 ppm [6] | percent effect (mortality or growth inhibition) at 200 ppm [5]

Cc1sc(-c2cnn(-c3c(C(F)(F)F)c(C(F)(F)C(F)(F)F)nn3C)c2)cc1C(=O)NC1(C#N)CC1 [Compound 42]
≥ 80%: control (mortality, anti-feedant effect or growth inhibition) at 200 ppm [1] | percent effect (mortality or growth inhibition) at 200 ppm [2] | percent effect (mortality or growth inhibition) at 200 ppm [3] | mortality at 200 ppm [4] | mortality at 200 ppm [6] | percent effect (mortality or growth inhibition) at 200 ppm [5]

Cn1nc(C(F)(F)C(F)(F)F)c(C(F)(F)F)c1-n1cc(-c2cc(C(=O)NC3CC3F)c(Cl)s2)cn1 (stereo not shown) [Compound 32]
≥ 80%: control (mortality, anti-feedant effect or growth inhibition) at 200 ppm [1] | percent effect (mortality or growth inhibition) at 200 ppm [2] | percent effect (mortality or growth inhibition) at 200 ppm [3] | mortality at 200 ppm [4] | percent effect (mortality or growth inhibition) at 200 ppm [5]

Cn1nc(C(F)(F)C(F)(F)F)c(C(F)(F)F)c1-n1cc(-c2cc(C(=O)NCC=C(Cl)Cl)c(Cl)s2)cn1 [Compound 28]
≥ 80%: control (mortality, anti-feedant effect or growth inhibition) at 200 ppm [1] | percent effect (mortality or growth inhibition) at 200 ppm [2] | percent effect (mortality or growth inhibition) at 200 ppm [3] | mortality at 200 ppm [6] | percent effect (mortality or growth inhibition) at 200 ppm [5]

Cn1nc(C(F)(F)C(F)(F)F)c(C(F)(F)F)c1-n1cc(-c2cc(C(=O)NC3(C#N)CC3)c(Cl)s2)cn1 [Compound 4, 2-chloro-N-(1-cyanocyclopropyl)-5-[1-[2-methyl-5-(1,1,2,2,2-pentafluoroethyl)-4-(trifluoromethyl)pyrazol-3-yl]pyrazol-4-yl]thiophene-3-carboxamide]
≥ 80%: control (mortality, anti-feedant effect or growth inhibition) at 200 ppm [1] | percent effect (mortality or growth inhibition) at 200 ppm [2] | percent effect (mortality or growth inhibition) at 200 ppm [3] | mortality at 200 ppm [4] | mortality at 200 ppm [6] | percent effect (mortality or growth inhibition) at 200 ppm [5]

CC(C)NC(=O)c1cc(-c2cnn(-c3c(C(F)(F)F)c(C(F)(F)C(F)(F)F)nn3C)c2)sc1Cl [Compound 17]
≥ 80%: control (mortality, anti-feedant effect or growth inhibition) at 200 ppm [1] | percent effect (mortality or growth inhibition) at 200 ppm [2] | percent effect (mortality or growth inhibition) at 200 ppm [3] | mortality at 200 ppm [4] | mortality at 200 ppm [6] | percent effect (mortality or growth inhibition) at 200 ppm [5]

Cn1nc(C(F)(F)C(F)(F)F)c(C(F)(F)F)c1-n1cc(-c2cc(C(=O)NC3(C(N)=O)CC3)c(Cl)s2)cn1 [Compound 5, N-(1-carbamoylcyclopropyl)-2-chloro-5-[1-[2-methyl-5-(1,1,2,2,2-pentafluoroethyl)-4-(trifluoromethyl)pyrazol-3-yl]pyrazol-4-yl]thiophene-3-carboxamide]
≥ 80%: control (mortality, anti-feedant effect or growth inhibition) at 200 ppm [1] | percent effect (mortality or growth inhibition) at 200 ppm [2] | percent effect (mortality or growth inhibition) at 200 ppm [3] | mortality at 200 ppm [4] | mortality at 200 ppm [6] | percent effect (mortality or growth inhibition) at 200 ppm [5]

Cn1nc(C(F)(F)C(F)(F)F)c(C(F)(F)F)c1-n1cc(-c2cc(C(=O)N[C@H]3C[C@@H]3C(F)(F)F)c(Cl)s2)cn1 [Compound 33]
≥ 80%: control (mortality, anti-feedant effect or growth inhibition) at 200 ppm [1] | percent effect (mortality or growth inhibition) at 200 ppm [2] | percent effect (mortality or growth inhibition) at 200 ppm [3] | mortality at 200 ppm [4] | mortality at 200 ppm [6] | percent effect (mortality or growth inhibition) at 200 ppm [5]

Cn1nc(C(F)(F)C(F)(F)F)c(C(F)(F)F)c1-n1cc(-c2cc(C(N)=O)c(Cl)s2)cn1 [Compound 16]
≥ 80%: control (mortality, anti-feedant effect or growth inhibition) at 200 ppm [1] | percent effect (mortality or growth inhibition) at 200 ppm [2] | percent effect (mortality or growth inhibition) at 200 ppm [3] | mortality at 200 ppm [4] | percent effect (mortality or growth inhibition) at 200 ppm [5]

CCN(C(=O)c1cc(-c2cnn(-c3c(C(F)(F)F)c(C(F)(F)C(F)(F)F)nn3C)c2)sc1Cl)C1(C#N)CC1 [Compound 10]
≥ 80%: control (mortality, anti-feedant effect or growth inhibition) at 200 ppm [1] | percent effect (mortality or growth inhibition) at 200 ppm [2] | percent effect (mortality or growth inhibition) at 200 ppm [3] | mortality at 200 ppm [4] | mortality at 200 ppm [6] | percent effect (mortality or growth inhibition) at 200 ppm [5]

C=C(F)CNC(=O)c1cc(-c2cnn(-c3c(C(F)(F)F)c(C(F)(F)C(F)(F)F)nn3C)c2)sc1Cl [Compound 24]
≥ 80%: control (mortality, anti-feedant effect or growth inhibition) at 200 ppm [1] | percent effect (mortality or growth inhibition) at 200 ppm [2] | percent effect (mortality or growth inhibition) at 200 ppm [3] | mortality at 200 ppm [4] | percent effect (mortality or growth inhibition) at 200 ppm [5]

Cn1nc(C(F)(F)C(F)(F)F)c(C(F)(F)F)c1-n1cc(-n2cc(C(=O)NC3CC3)c(C(F)(F)F)c2)cn1 [Compound 45]
≥ 80%: control (mortality, anti-feedant effect or growth inhibition) at 200 ppm [1] | percent effect (mortality or growth inhibition) at 200 ppm [2] | percent effect (mortality or growth inhibition) at 200 ppm [3] | mortality at 200 ppm [4] | percent effect (mortality or growth inhibition) at 200 ppm [5]

CNC(=O)c1cc(-c2cnn(-c3c(C(F)(F)F)c(C(F)(F)C(F)(F)F)nn3C)c2)sc1Cl [Compound 18]
≥ 80%: control (mortality, anti-feedant effect or growth inhibition) at 200 ppm [1] | percent effect (mortality or growth inhibition) at 200 ppm [2] | percent effect (mortality or growth inhibition) at 200 ppm [3] | mortality at 200 ppm [4] | percent effect (mortality or growth inhibition) at 200 ppm [5]

Cn1nc(OC(F)(F)C(F)OC(F)(F)F)c(C(F)(F)F)c1-n1cc(-c2cc(C(=O)NC3CC3)c(Cl)s2)cn1 (stereo not shown) [Compound 55]
≥ 80%: control (mortality, anti-feedant effect or growth inhibition) at 200 ppm [1] | percent effect (mortality or growth inhibition) at 200 ppm [2] | percent effect (mortality or growth inhibition) at 200 ppm [3] | percent effect (mortality or growth inhibition) at 200 ppm [5]

Cn1nc(OC(F)(F)C(F)C(F)(F)F)c(C(F)(F)F)c1-n1cc(-c2cc(C(=O)NC3CC3)c(Cl)s2)cn1 (stereo not shown) [Compound 53]
≥ 80%: control (mortality, anti-feedant effect or growth inhibition) at 200 ppm [1] | percent effect (mortality or growth inhibition) at 200 ppm [2] | percent effect (mortality or growth inhibition) at 200 ppm [3] | percent effect (mortality or growth inhibition) at 200 ppm [5]

Cn1nc(OC(F)(F)C(F)OC(F)(F)F)c(C(F)(F)F)c1-n1cc(-c2cc(C(=O)NC3(C#N)CC3)c(Cl)s2)cn1 (stereo not shown) [Compound 54]
≥ 80%: control (mortality, anti-feedant effect or growth inhibition) at 200 ppm [1] | percent effect (mortality or growth inhibition) at 200 ppm [2] | percent effect (mortality or growth inhibition) at 200 ppm [3] | percent effect (mortality or growth inhibition) at 200 ppm [5]
